These results are taken from patent EP4737449A1 (Changchun Genescience Pharmaceutical Co., Ltd., priority 2023, dated 2025).

Structures are written as SMILES.

Series [1] can be described thus: Caco-2 cell permeability test. The class given is in vitro ADME. The settings on record: human, Caco-2, 10 µM compound; for Papp A→B at 120 min, 10 µM / Papp B→A at 120 min, 10 µM / efflux ratio at 120 min, 10 µM: pH 7.4; for efflux ratio at 120 min, 10 µM: read-out: Efflux rate. How it is done:
• 1) Cell culture: The resuscitated Caco-2 cells were cultured in DMEM culture solution containing 10% FBS, 1% Penicillin-Streptomycin Liquid (100X) and 1% NEAA in an incubator at 37 °C with 5% CO2. The culture medium was replaced every 2-3 days and subculture was carried out when the cell confluence reached about 80%. • 2) Preparation of transport buffer: Transport buffer (pH 7.4) was prepared by adding 5 mL of 1M HEPES to 500 mL of HBSS (with or without BSA) to a final concentration of 10 mM HEPES (with or without BSA). • 3) Before the start of the transport experiment (day 14-28), the culture medium was taken out from the cell culture plate, the plate was washed twice with preheated HBSS buffer (10 mM HEPES, pH 7.4), and 100 µL of HBSS buffer was added into each well. After incubation at 37°C for 30 min, the TEER values were measured by a cell resistance meter (Millicell-ERS2) to confirm the integrity and compactness of the monolayer cells. • 4) The HBSS buffer was discarded, the upper plate containing the cell monolayer membrane was transferred to the corresponding receiving plate, the test compound solution or buffer was added to the top (A side) and the basal side (B side), respectively, the cell plate was placed in the corresponding 96-well receiving plate, and grouping was carried out according to Table 6. The prepared positive control drug, test compound or HBSS (with or without BSA) buffer were added to the A side or B side of the Transwell cell plate filter membrane, and the cell plate was incubated at 37°C. Table 6. Compound grouping scheme
• 1) After incubation for 5 min, a sample was taken from the A and B administration sides, 8 µL each side, and added into 72 µL of transport buffer (diluted 10 times) to serve as T0 of the initial administration solution. • 2) After incubation for 120 min, the samples from both ends of the Transwell cell plate filter membrane were collected, and 80 µL of sample solution was taken from the receiving side to serve as the sample at the receiving side after transport, and 8 µL of sample was taken from the administration side and added into 72 µL of transport buffer to serve as the sample at the administration side after transport. • 3) After collecting the samples from both sides, the plate was gently tapped to discard the remaining solution in the cell plate, the cell plate was rinsed with the transport buffer, 100 µL of acetonitrile solution containing internal standard working solution was added to each well to lyse the cells, the system was pipetted up and down to well mix it, and then 80 µL of cell lysate from each well was measured by pipetting to serve as the sample after cell lysis. • 4) After collecting all samples in the transport system (T0 sample, receiving side sample, and donor side sample), 160 µL of IS/ACN solution was added to each well, 80 µL of IS/ACN solution was added to the collected lysate sample, and then the sample was sealed. • 5) The sample plate was shaken for 10 min, and stored at -20°C before LC-MS/MS analysis. • 6) A standard curve was plotted, and then 8 µL of standard curve solution was taken and mixed with 72 µL of transport buffer and 160 µL of IS/ACN to serve as the standard curve sample. • 7) All the above samples were centrifuged at 6000 RPM for 10 min, 100 µL of supernatant was taken, 100 µL of H2O was added, and the mixture was fully mixed, and analyzed by LC-MS/MS.

Series [2] deals with NUGC-3 human gastric cancer subcutaneous xenograft. Kind of series: Efficacy in NUGC-3 human gastric cancer subcutaneous xenograft model. The series is classed as in vivo, BALB/c Nude mouse. The settings on record: PO, 19 days. As for the experimental part:
NUGC-3 cells were cultured in RPMI-1640 medium containing 10% FBS. NUGC-3 cells in the exponential growth phase were collected, the total amount of cells required was calculated, the cells were re-suspended in PBS to a suitable concentration and then an equal volume of Matrigel was added for subcutaneous tumor seeding in BALB/c Nude mice. The concentration of the cell suspension was 5x10^6/0.1 mL.
0.1 mL (5×10^6 NUGC-3 cells) of cell suspension (PBS : Matrigel = 1:1, V/V) was seeded subcutaneously on the right back of each mouse. When the tumor grew to have an average volume of 128.4 mm^3, group-based drug administration began (vehicle: 0.2% HPC + 0.5% Tween 80), and the average tumor volume of the enrolled animals was 146.1 mm^3.
Table 11 Route, dose and regimen of administration in the subcutaneous xenograft model

The nature of series [3]: Pharmacokinetic study in beagles. The series is classed as in vivo. The note with it: dog, plasma; for bioavailability: IV 1mpk/PO 2mpk. How it is done:
On the day of administration, the test sample was prepared using a 5%DMSO+5%Solutol+90%Saline vehicle formula, and the drug solution was prepared and kept ready for use.
The IV group received a dose of 1 mg/kg, and the PO group received a dose of 2 mg/kg. The animals were fasted overnight before administration.
The animals were weighed before administration, and the dose was calculated based on the body weight. The drug was administered once via IV and PO on the day of administration. After administration, blood was collected from an appropriate vein at 0.083 h, 0.25 h, 0.5 h, 1.0 h, 2.0 h, 4.0 h, 6.0 h, 8.0 h and 24.0 h, about 1 mL each time, placed in EDTA-K2 anticoagulation blood collection tubes, centrifuged at 4000 rpm for 10 min (4°C), and plasma was separated within 1 h. The plasma was drawn into labeled EP tubes (the label should at least indicate the subject code, animal number, collection time, collection date, etc.), and stored at -80°C for testing. The process from blood collection to centrifugation was carried out in ice bath. The animals were allowed to eat and have free access to water 3 h after administration. The concentration of the test sample in beagle plasma was detected using validated LC-MS/MS.

For the compound `CN1CC[C@@H](Nc2cccc3c(CC(F)(F)F)c(C#CCNC(=O)c4cnn(C(C)(C)C)c4)nn23)[C@@H](F)C1` [Compound 001, 1-tert-butyl-N-[3-(7-{[(3S,4R)-3-fluoro-1-methylpiperidin-4-yl]amino}-3-(2,2,2-trifluoroethyl)pyrazolo[1,5-a]pyridin-2-yl)prop-2-yn-1-yl]-1H-pyrazole-4-carboxamide], in series [1] (120 min), the Papp A→B at 120 min, 10 µM came to 4.39 ×10⁻⁶ cm/s and the Papp B→A at 120 min, 10 µM was 6.5 ×10⁻⁶ cm/s. For the same compound, in series [1], the efflux ratio at 120 min, 10 µM was 1.48.
On to `CN1CC[C@@H](Nc2cccc3c(CC(F)(F)F)c(C#CCNC(=O)c4cnn(C(C)(C)C)c4N)nn23)[C@@H](F)C1` [Compound 047], for which the “tumor volume inhibition rate TGI” value in series [2] (50 mpk, BID) is 68%. The “tumor volume inhibition rate TGI” value in series [2] (100 mpk, BID) is 93%. Moreover, in series [2] (150 mpk, BID), the “tumor volume inhibition rate TGI” value stood at 103%. Also, the “tumor volume inhibition rate TGI” value in series [2] (150 mpk, QD) was determined as 91%. For the same compound, the efflux ratio at 120 min, 10 µM in series [1] stood at 1.51. In addition, in series [1] (120 min), the Papp A→B at 2 h was 5.18 ×10⁻⁶ cm/s and the Papp B→A at 2 h was found to be 7.8 ×10⁻⁶ cm/s. Moreover, in series [3] (1 mg/kg, IV 1mpk), the AUC(0-t) was 1400 ng·h/mL, the C0 is 414 ng/mL, the Vd was 3.8 L/kg and the clearance was 12.8 mL/min/kg. This compound also showed a half-life in series [3] (1 mg/kg, IV 1mpk) of 5.6 h. In series [3] (2 mg/kg, PO 2mpk), the AUC(0-t) was 1640 ng·h/mL, the concentration peaked (Cmax) at 199 ng/mL, the Tmax came to 2 h and the half-life is 14 h. Moreover, the bioavailability in series [3] is 42%.
For the compound `CNC(=O)c1ccc(NCC#Cc2cc3c(N[C@@H]4CCN(C)C[C@@H]4F)cccc3n2CC(F)(F)F)c(OC)c1` [Control compound, reference compound], in series [2] (50 mpk, QD), the “tumor volume inhibition rate TGI” value came to 52%. For the same compound, the “tumor volume inhibition rate TGI” value in series [2] (100 mpk, QD) stood at 77%. In series [1] (120 min), this compound showed a Papp A→B at 120 min, 10 µM of 4.68 ×10⁻⁶ cm/s and a Papp B→A at 120 min, 10 µM of 19.4 ×10⁻⁶ cm/s. For the same compound, the efflux ratio at 120 min, 10 µM in series [1] amounted to 4.16. For the same compound, in series [3] (beagle, 1 mg/kg, IV 1mpk), the exposure AUC(0-t) was 849 ng·h/mL, the C0 amounted to 277 ng/mL, the Vd was 6.7 L/kg and the clearance came to 20.4 mL/min/kg. Also, the half-life in series [3] (beagle, 1 mg/kg, IV 1mpk) is 4.8 h. In addition, the bioavailability in series [3] (beagle, 2 mg/kg) was 82%. Besides, in series [3] (beagle, 2 mg/kg, PO 2mpk), the AUC(0-t) worked out at 1490 ng·h/mL, the Cmax is 101 ng/mL, the Tmax worked out at 4.7 h and the half-life is 6.7 h.
